Experiment [1] relates to Leukemia Cell Line RPMI-8226. Format: cell-based. The settings on record: Homo sapiens; RPMI-8226; single dose, 10 uM compound concentration; read-out: inhibition of proliferation.
The test system of experiment [2] is Ovarian Cell Line OVCAR-8. The experiment in a line: cells. Format: cell-based. The note with it: Homo sapiens; OVCAR-8; single dose, 10 uM compound concentration; read-out: inhibition of proliferation.
In a further experiment the test system is Leukemia Cell Line K-562. Format: cell-based. The settings on record: Homo sapiens, K562; K-562; single dose, 10 uM compound concentration; read-out: inhibition of proliferation.
Experiment [3] deals with Leukemia Cell Line MOLT-4. It counts as cell-based. The settings on record: Homo sapiens; MOLT-4; single dose, 10 uM compound concentration; read-out: inhibition of proliferation.
The test system of the next experiment is Leukemia Cell Line SR. The experiment is described as follows: cells. Format: cell-based. The settings on record: Homo sapiens; SR; single dose, 10 uM compound concentration; read-out: inhibition of proliferation.
A further experiment concerns the target T1, HDAC6 (Homo sapiens, UniProt Q9UBN7).
T1 sequence (Q9UBN7 1-1215): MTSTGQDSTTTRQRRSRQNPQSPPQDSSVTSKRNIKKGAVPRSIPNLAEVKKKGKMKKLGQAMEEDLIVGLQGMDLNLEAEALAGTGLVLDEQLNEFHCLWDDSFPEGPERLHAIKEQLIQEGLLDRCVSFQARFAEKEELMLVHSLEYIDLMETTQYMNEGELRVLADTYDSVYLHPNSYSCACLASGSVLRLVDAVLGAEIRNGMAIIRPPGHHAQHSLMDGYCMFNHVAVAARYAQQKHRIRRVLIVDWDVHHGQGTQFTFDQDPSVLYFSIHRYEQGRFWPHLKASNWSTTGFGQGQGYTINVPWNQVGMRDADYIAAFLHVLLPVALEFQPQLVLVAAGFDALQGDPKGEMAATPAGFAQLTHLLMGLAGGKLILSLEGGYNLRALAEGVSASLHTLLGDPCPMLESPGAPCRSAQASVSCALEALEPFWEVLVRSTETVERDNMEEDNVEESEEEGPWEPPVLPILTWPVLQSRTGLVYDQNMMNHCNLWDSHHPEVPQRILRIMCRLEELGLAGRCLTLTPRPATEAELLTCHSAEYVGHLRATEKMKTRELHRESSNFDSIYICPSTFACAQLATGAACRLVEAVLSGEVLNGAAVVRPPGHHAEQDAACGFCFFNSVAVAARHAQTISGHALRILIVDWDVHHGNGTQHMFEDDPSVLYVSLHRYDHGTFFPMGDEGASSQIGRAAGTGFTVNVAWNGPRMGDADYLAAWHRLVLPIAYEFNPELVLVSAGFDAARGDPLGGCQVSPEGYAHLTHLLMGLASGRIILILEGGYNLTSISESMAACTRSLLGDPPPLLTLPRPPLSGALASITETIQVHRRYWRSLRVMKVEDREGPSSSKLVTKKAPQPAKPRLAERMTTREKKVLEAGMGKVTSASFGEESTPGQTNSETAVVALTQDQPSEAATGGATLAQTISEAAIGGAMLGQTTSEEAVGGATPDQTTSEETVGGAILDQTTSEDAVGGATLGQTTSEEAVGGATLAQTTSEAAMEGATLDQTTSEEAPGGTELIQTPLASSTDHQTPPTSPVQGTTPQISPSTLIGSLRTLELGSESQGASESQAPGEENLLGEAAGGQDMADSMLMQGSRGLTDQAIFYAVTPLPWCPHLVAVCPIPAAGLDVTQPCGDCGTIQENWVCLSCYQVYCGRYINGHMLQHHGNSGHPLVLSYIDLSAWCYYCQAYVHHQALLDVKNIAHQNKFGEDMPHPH
The experiment is described as follows: HDAC Fluorescent Activity Assay. The settings on record: symbols ++ / +; read-out: HDAC6 Inhibition Activity (IC50 class). Format: biochemical.

Experiment [4] has as its system Breast Cancer Cell Line MDA-MB-468. The experiment is described as follows: cells. The settings on record: Homo sapiens, MDA-MB-468, read-out: inhibition of proliferation.
The test system of a further experiment is Ovarian Cell Line IGROV1. Format: cell-based. The note with it: Homo sapiens, IGROV-1; IGROV1; single dose, 10 uM compound concentration; read-out: inhibition of proliferation.
Experiment [5] has as its system Breast Cancer Cell Line HS 578T. Format: cell-based. The note with it: Homo sapiens; HS 578T; single dose, 10 uM compound concentration; read-out: inhibition of proliferation.
The subject of experiment [6] is Melanoma Cell Line UACC-62. The experiment is described as follows: cells. The settings on record: Homo sapiens; UACC-62; single dose, 10 uM compound concentration; read-out: inhibition of proliferation. It counts as cell-based.
Experiment [7] concerns Breast Cancer Cell Line BT-549. The experiment in a line: cells. Format: cell-based. The settings on record: Homo sapiens; BT-549; single dose, 10 uM compound concentration; read-out: inhibition of proliferation.
Experiment [8] concerns Leukemia Cell Line CCRF-CEM. The experiment is described as follows: cells. The note with it: Homo sapiens, single dose, 10 uM compound concentration, read-out: inhibition of proliferation. It counts as cell-based.
Experiment [9] relates to Ovarian Cell Line OVCAR-3. The experiment in a line: cells. The note with it: Homo sapiens, OVCAR-3, read-out: inhibition of proliferation.

SMILES strings stand for the structures. Some results are limits rather than exact numbers.

Consider `CC[C@H](Nc1nc(N)nc(C)c1C#N)c1nc2cccc(CN(C)c3ncc(C(=O)NO)cn3)c2c(=O)n1-c1ccccc1` [LII, (S)-2-(((2-(1-((2-amino-5-cyano-6-methylpyrimidin-4-yl)amino)propyl)-4-oxo-3-phenyl-3,4-dihydroquinazolin-5-yl)methyl)(methyl)amino)-N-hydroxypyrimidine-5-carboxamide], for which the inhibition at 10 µM (in experiment [1]; in experiment [2]; in the experiment on Leukemia Cell Line K-562; in experiment [3]; in the experiment with Leukemia Cell Line SR; in [4]) was greater than 50% each time. For the same compound, the inhibition at 10 µM (with Ovarian Cell Line IGROV1; in experiment [5]; in [6]; in experiment [7]; in experiment [8]; in experiment [9]) was greater than 50% in each case. Besides, the IC50 at HDAC6 was less than 100 nM.

For orientation: IC50 means the midpoint of a concentration-inhibition curve.

Values taken from US20200165257A1, “INHIBITORS OF PHOSPHOINOSITIDE 3-KINASE AND HISTONE DEACETYLASE FOR TREATMENT OF CANCER” (THE UNITED STATES OF AMERICA, AS REPRESENTED BY THE …, priority 2017, published 2020).
